# Assay results: PubChem BioAssay (NCI)
# Where “and” joins values, the source holds several entries; their conditions need not be identical. Identical values can stand only once.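 Protocol summary: plate cells (96-well), add compound at 5 concentrations, incubate 48 h, interpolate endpoints linearly. The concentration for 50% growth inhibition is given as GI50. TGI: total growth inhibition.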
# Columns and labels:
# Assay in all cases: NCI-60 cell line screen, 48 h
# RPMI-8226 leukemia = tested on: RPMI-8226 leukemia
# SK-MEL-28 melanoma = tested on: SK-MEL-28 melanoma
# NCI-H23 lung = tested on: NCI-H23 lung
# MDA-MB-231 breast = tested on: MDA-MB-231 breast
# KM12 colon = tested on: KM12 colon
# SR leukemia = tested on: SR leukemia
# K-562 leukemia = tested on: K-562 leukemia
# 786-0 renal = tested on: 786-0 renal
# OVCAR-4 ovarian = tested on: OVCAR-4 ovarian
# NCI/ADR-RES ovarian = tested on: NCI/ADR-RES ovarian
Structure (SMILES),GI50 (RPMI-8226 leukemia),TGI (RPMI-8226 leukemia),GI50 (SK-MEL-28 melanoma),TGI (SK-MEL-28 melanoma),GI50 (NCI-H23 lung),TGI (NCI-H23 lung),GI50 (MDA-MB-231 breast),TGI (MDA-MB-231 breast),GI50 (KM12 colon),TGI (KM12 colon),GI50 (SR leukemia),TGI (SR leukemia),GI50 (K-562 leukemia),TGI (K-562 leukemia),GI50 (786-0 renal),TGI (786-0 renal),GI50 (OVCAR-4 ovarian),TGI (OVCAR-4 ovarian),GI50 (NCI/ADR-RES ovarian),TGI (NCI/ADR-RES ovarian)
COc1ccc2nc3cc(Cl)ccc3c(Nc3cc(C(C)C)c(O)cc3C)c2c1,0.663 µM,2.68 µM,1.91 µM,4.05 µM,2.2 µM,6.02 µM,1.82 µM,3.97 µM,2.2 µM,4.67 µM,703 nM,12 µM,2.02 µM,> 100 µM,1.64 µM,3.05 µM,2.5 µM,9.46 µM,2.76 µM,8.01 µM
O=C1NC(=O)C(c2c[nH]c3ccccc23)=C1c1ccccc1,> 25 µM,> 25 µM,> 25 µM,> 25 µM,> 25 µM,> 25 µM,> 25 µM,> 25 µM,> 25 µM,> 25 µM,> 25000 nM,> 25 µM,> 25 µM,> 25 µM,> 25 µM,> 25 µM,> 25 µM,> 25 µM,> 25 µM,> 25 µM
N=C1/C(=C2\Nc3ccccc3S2)CC(=O)N1c1ccc(SC(F)F)cc1,0.626 µM,66 µM,4.38 µM,> 100 µM,18.7 µM,> 100 µM,24.6 µM,> 100 µM,8.13 µM,> 100 µM,2210 nM,> 100 µM,1.65 µM,> 100 µM,3.23 µM,> 100 µM,0.969 µM,52.2 µM,6.52 µM,> 100 µM
COC1=CC2CCN3Cc4cc5c(cc4C(C1O)C23)OCC5 (stereo unspecified),15 µM,> 29.1 µM,3.46 µM,> 24.2 µM,2.17 µM,8.28 µM,2.86 µM,22.6 µM,3.06 µM,30.3 µM,,> 100 µM,3.51 µM,> 100 µM,2.47 µM,> 61.9 µM,1.33 µM,22.8 µM,3 µM,18.4 µM
N=C1C(c2nc3ccccc3s2)=C(O)CN1c1cc(Cl)cc(Cl)c1,> 100 µM,> 100 µM,> 100 µM,> 100 µM,> 100 µM,> 100 µM,23.6 µM,> 100 µM,> 100 µM,> 100 µM,> 100000 nM,> 100 µM,> 100 µM,> 100 µM,88.7 µM,> 100 µM,37.4 µM,> 100 µM,> 100 µM,> 100 µM
O=c1[nH]c(SCc2ccccc2[N+](=O)[O-])nc2nc[nH]c12,,> 100 µM,,> 100 µM,,> 100 µM,> 100 µM and 40.8 µM,> 100 µM,,> 100 µM,,> 100 µM,,> 100 µM,,> 100 µM,30.3 µM and > 100 µM,> 100 µM,,> 100 µM
Cn1cc(C2=C(c3c(S(C)=O)n(C)c4ccccc34)C(=O)NC2=O)c2ccccc21 (stereo unspecified),12.7 µM,> 25 µM,19.1 µM,> 25 µM,9.79 µM,> 25 µM,12.9 µM,> 25 µM,7.9 µM,> 25 µM,2550 nM,24.3 µM,8.89 µM,> 25 µM,> 19.9 µM,> 25 µM,16.1 µM,> 25 µM,9.19 µM,> 25 µM
Cc1cc(C#Cc2ccccc2)ccc1-n1c(/C=C/c2cc(O)ccc2O)nc2ccccc2c1=O,1.26 µM,6.08 µM,1.53 µM,2.87 µM,1.48 µM,3.12 µM,1.56 µM,3.16 µM,1.65 µM,3.07 µM,1100 nM,2.87 µM,1.42 µM,3.82 µM,1.74 µM,3.15 µM,2.4 µM,8.5 µM,2.06 µM,5.22 µM
Fc1ccc(C2C3CCOc4c(ccc5ccccc45)C3=NN2c2ccccc2)cc1 (stereo unspecified),63.5 µM,> 100 µM,> 88.7 µM,> 100 µM,> 100 µM,> 100 µM,43.8 µM,> 100 µM,> 100 µM,> 100 µM,13300 nM,> 100 µM,49 µM,> 100 µM,> 100 µM,> 100 µM,> 100 µM,> 100 µM,> 100 µM,> 100 µM
OCc1ccc(N(Cc2ccc(F)cc2)CC2CCC2)cc1Cl,9.28 µM,31.6 µM,14.8 µM,28.3 µM,10.7 µM,24.7 µM,13.5 µM,26.8 µM,14 µM,27.8 µM,11700 nM,29 µM,6.4 µM,22.7 µM,12.3 µM,25.8 µM,2.18 µM,14.6 µM,12.8 µM,28 µM
CC/C(=N/N=C(N)N)c1ccc(NC(=O)Nc2ccc(/C(CC)=N/N=C(N)N)cc2)cc1,1.62 µM,8.85 µM,12.6 µM,46.9 µM,11.5 µM,50.8 µM,6.88 µM,28.1 µM,3.49 µM,20.1 µM,2440 nM,14.9 µM,1.06 µM,7.25 µM,9.02 µM,30.9 µM,6.08 µM,44.8 µM,24.7 µM,> 100 µM
Nc1ccc(C(=O)Nc2ccccc2N)cc1,,98.8 µM,,> 100 µM,,> 100 µM,,> 100 µM,,> 100 µM,,> 100 µM,,> 100 µM,,> 100 µM,,> 76.5 µM,,19.6 µM
COc1ccc(/C=C2/CN(CCC#N)C/C(=C\c3ccc(OC)cc3)C2=O)cc1,0.401 µM,9.02 µM,1.99 µM,4.3 µM,3.34 µM,19.8 µM,2.71 µM,15 µM,1.72 µM,3.83 µM,1070 nM,> 100 µM,3.28 µM,> 100 µM,1.99 µM,4.33 µM,4.42 µM,> 100 µM,3.73 µM,> 100 µM
